The target of one series is T1, human GPR40 (Homo sapiens, UniProt O14842).
T1 construct: expressed in transfected cells
In words: Determination of EC50 against human GPR40: intracellular calcium change by FLIPR in CHO cells. The class given is cell-based. The conditions noted are these: CHO cell line that stably expressed human GPR40; changes in intracellular calcium concentration measured by FLIPR (Fluo3-AM). How it is done: Determination of EC50 of the Compound of the Present Invention Against Human GPR40
For determination of EC50, CHO cell line that stably expressed human GPR40 was used. Unless otherwise indicated, the CHO cell line was cultured using α-MEM medium (Invitrogen) containing 10% fetal calf serum (Invitrogen).
The cells cultured to nearly confluent were rinsed with PBS (Invitrogen) on the previous day of the assay, peeled off with 0.05% Trypsin-EDTA solution (Invitrogen) and recovered by centrifugation. The number of the obtained cells was counted, and the cells were diluted such that 3×10^5 cells were contained per 1 mL of the medium, dispensed to a black welled 96-well plate (coster) by 100 μL per well and cultured overnight in a CO2 incubator. Various test compounds were added to the CHO cells thus prepared, and the changes in the intracellular calcium concentration was measured using FLIPR (Molecular Device). The below-mentioned pre-treatment was applied to measure changes in the intracellular calcium concentration by FLIPR.
An assay buffer for adding a fluorescent dye Fluo3-AM (DOJIN) to the cells, or for washing the cells immediately before FLIPR assay was prepared. To a solution of 1M HEPES (pH 7.4, DOJIN, 20 mL) added to HBSS (Invitrogen, 1000 mL) (hereinafter HBSS/HEPES solution) was added a solution (10 mL) obtained by dissolving probenecid (Sigma, 710 mg) in 1N NaOH (5 mL), and adding and mixing an HBSS/HEPES solution (5 mL), and the resulting solution was used as an assay buffer. Fluo3-AM (50 μg) was dissolved in dimethylsulfoxide (Wako, 21 μL), and an equivalent amount of 20% pluronic acid (Molecular Probes) was added and mixed. The solution was added to the assay buffer (10.6 mL) supplemented with fetal calf serum (105 μL) to give a fluorescent dye solution. On the previous day of assay, the medium of the CHO cells newly inoculated to the black welled 96-well plate was removed, the fluorescent dye solution was immediately dispensed by 100 μL per well and the cells were cultured in a CO2 incubator for 1 hr to allow intake of the fluorescent dye by the cells. The cells after the culture were washed with the above-mentioned assay buffer and set on FLIPR. The test compound was diluted with dimethylsulfoxide in advance, dispensed to polypropylene 96-well plate (sample plate) by 2 μL, and cryopreserved at −20° C. To the thawed sample plate was added an assay buffer containing 0.015% CHAPS (DOJIN) by 198 μL, and simultaneously set on FLIPR together with the cell plate. After the aforementioned pre-treatment, changes in the intracellular calcium concentration upon addition of various test compounds was measured by FLIPR. Based on the results, a dose-response curve of each test compound was formed and EC50 was calculated.

T1 sequence (O14842 whole entry): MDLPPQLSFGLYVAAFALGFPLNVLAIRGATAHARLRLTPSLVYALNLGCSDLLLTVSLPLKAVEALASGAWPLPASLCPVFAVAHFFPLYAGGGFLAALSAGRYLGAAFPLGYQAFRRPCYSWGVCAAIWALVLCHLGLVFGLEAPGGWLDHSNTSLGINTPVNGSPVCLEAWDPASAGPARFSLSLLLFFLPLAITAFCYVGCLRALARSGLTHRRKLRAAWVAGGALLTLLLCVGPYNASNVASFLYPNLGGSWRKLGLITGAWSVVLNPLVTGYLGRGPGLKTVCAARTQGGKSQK

Turning to `CCCN(Cc1ccc(COc2ccc(CCC(=O)O)cc2)cc1)c1nc(-c2ccccc2)c(C)o1` [Example 40, 3-[4-[[4-[[(5-methyl-4-phenyl-1,3-oxazol-2-yl)(propyl)amino]methyl]benzyl]oxy]phenyl]propanoic acid], the EC50 at human GPR40 worked out at 55 nM.
Take `O=C(O)CCc1ccc(OCc2ccc(CN(CCc3ccccn3)c3nc(-c4ccccc4)cs3)cc2)cc1` [Example 12, 3-{4-[(4-([(4-phenyl-1,3-thiazol-2-yl)(2-pyridin-2-ylethyl)amino]methyl}benzyl)oxy]phenyl)propanoic acid]: at human GPR40, the EC50 was determined as 19 nM.
In the case of `CC(C)c1csc(N(CCc2ccccc2)Cc2ccc(COc3ccc(CCC(=O)O)cc3)cc2)n1` [Example 2, 3-{4-[(4-{[(4-isopropyl-1,3-thiazol-2-yl)(2-phenylethyl)amino]methyl}benzyl)oxy]phenyl}propanoic acid], the concentration giving a half-maximal response (EC50) at human GPR40 was 48 nM.
In the case of `O=C(O)CCc1ccc(OCc2ccc(CN(CCc3ccccc3)c3nc(-c4ccccc4)cs3)cc2)cc1` [Example 32, 3-[4-[[4-[[(2-phenylethyl)(4-phenyl-1,3-thiazol-2-yl)amino]methyl]benzyl]oxy]phenyl]propanoic acid], the melting point lay within 114 to 115 °C.
Turning to `CC(C)c1csc(N(CCc2ccc(F)cc2)Cc2ccc(COc3ccc(CCC(=O)O)c(F)c3)cc2)n1` [Example 9, 3-{2-fluoro-4-[(4-{[[2-(4-fluorophenyl)ethyl](4-isopropyl-1,3-thiazol-2-yl)amino]methyl}benzyl)oxy]-phenyl}propanoic acid], on human GPR40, the EC50 was found to be 38 nM.
`O=C(O)CCc1c(F)cc(OCc2ccc(CN(CCc3ccccc3)c3nc(-c4ccccc4)cs3)cc2)cc1F` [Example 42, 3-[2,6-difluoro-4-[[4-[[(2-phenylethyl)(4-phenyl-1,3-thiazol-2-yl)amino]methyl]benzyl]oxy]phenyl]propanoic acid]: the concentration giving a half-maximal response (EC50) at human GPR40 is 65 nM.

What is called EC50 is the concentration at which the effect is half-maximal. Broadly, the melting point is the temperature of the solid-liquid transition.
